Source: BindingDB's records for PubMed 3806397 (University of Arizona, 1987)
Where “and” joins values, the source holds several entries; their conditions need not be identical. Equal values may be shown once.

Target: Beta-arrestin-1 (Oryctolagus cuniculus, UniProt Q95223)
Sequence (Q95223 whole entry): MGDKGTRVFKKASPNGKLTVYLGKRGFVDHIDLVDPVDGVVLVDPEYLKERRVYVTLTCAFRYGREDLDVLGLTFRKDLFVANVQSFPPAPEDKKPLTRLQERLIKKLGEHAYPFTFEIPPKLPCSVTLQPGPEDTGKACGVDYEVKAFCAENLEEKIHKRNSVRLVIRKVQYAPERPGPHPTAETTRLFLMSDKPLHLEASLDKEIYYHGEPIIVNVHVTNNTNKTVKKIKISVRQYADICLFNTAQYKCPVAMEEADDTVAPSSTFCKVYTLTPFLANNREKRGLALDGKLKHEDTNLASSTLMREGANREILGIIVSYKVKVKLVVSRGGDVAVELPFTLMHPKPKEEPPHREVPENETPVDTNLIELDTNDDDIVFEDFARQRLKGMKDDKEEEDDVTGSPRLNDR

SMILES	Ki
C[N+](C)(C)CCOC(N)=O [(2-Hydroxyethyl)trimethyl ammonium chloride carbamate]	1660 nM and > 10000 nM
O=C1CCCN1CC#CCN1CCCC1 [1-[4-(2-oxo-pyrrolidin-1-yl)-but-2-ynyl]-pyrrolidinium]	214 nM and 1560 nM
CC(=O)OCC[N+](C)(C)C [2-acetoxyethyl(trimethyl)ammonium;perchlorate]	3230 nM
